# Measurements as given in US20230132973A1, “DIHYDRO-SPIRO[INDOLINE-3:1'-iSOQUINOLIN]-2-ONES AS ANTIMALARIAL AGENTS” (The University of Buea, priority 2020, published 2023).
# Entries after “also recorded” stand apart in the source; their conditions may differ. Like-named read-outs stand apart in the source and are kept apart here.
# Columns and labels:
# [1] = tested on: vacuolar lipid dynamics in P. falciparum; assay: Effect on vacuolar lipid dynamics (Oil Red O staining); format: cell-based, Plasmodium falciparum; details: trophozoite stage parasites, 24 h
# Protocol: Because cellular vacuolation may result from perturbation of intracellular lipid content, we investigated the effect of (±)-moxiquindole on vacuolar lipid dynamics using fluorescent Oil red O as lipid stain.
# The effect of the compounds on intracellular lipid dynamics was assessed by measurement of intracellular lipid content using Oil Red O. Briefly, early rings or late trophozoite stage parasites (30 hpi) were treated with the compounds or controls for 24 h under regular culture conditions. Following treatment, inhibitors were removed by centrifugation at 2500 rpm for 5 min and pellets were washed in equal volumes of 1×PBS. The parasites were fixed with 4% paraformaldehyde for 30 min at room temperature and pelleted at 2500. Three volumes of Oil Red O (ORO) stock solution (5 mg/mL in 100% isopropanol) were diluted in two volumes of distilled water and filtered prior to use. About 100 μL of the ORO were added to parasite pellets in the tube and incubated for 30 minutes. Parasites were pelleted and washed twice in distilled water. Thereafter, parasites were deposited on pre-cleaned coverslips and air dried. Dried coverslips were mounted in DAPI antifade reagent onto cleaned slides, air dried and viewed under a 100× oil immersion lens and images acquired using a Leica DM1000 fluorescence microscope suite (LAS version 4.5).
# [2] = tested on: multidrug resistant strain Dd2; assay: SYBR green I-based parasite growth inhibition assay, Dd2 strain; format: cell-based, Plasmodium falciparum
# [3] = tested on: Normal African Green Monkey Kidney Epithelial (Vero) cells; assay: MTT cell proliferation (cytotoxicity) assay, Vero cells; format: cell-based
# Protocol: (§1) By principle, the soluble MTT is reduced to an insoluble colored formazan product by mitochondrial succinate dehydrogenase in viable cells. Normal African Green Monkey Kidney Epithelial (Vero) and the Human Liposarcoma (SW872) cells were maintained in MEM supplemented with 10% FBS, 1% Glutamine and 1% penicillin-streptomycin. Confluent cells were trypsinized and seeded at a density of 2500 cells/well (total volume 90 μL) in 96-well plates and incubated for 24 h prior to drug treatment. Two-fold serial dilutions of the compounds (100-0.0488 μM) were added to the plates and incubated under humidified conditions at 37° C. for 48 h. Absorbance of the formed formazan product was measured at 550 nm wavelength using a SUNRISE microtiter plate reader. […] Selectivity indices (SI=CC50/EC50) were calculated as an indication of toxicity relative to the observed antiplasmodial activity.
# [4] = tested on: hemoglobin metabolism in P. falciparum ring and trophozoite stage parasites; assay: Effect on hemoglobin degradation (intraparasitic hemoglobin content); format: cell-based, Plasmodium falciparum; details: 10 μM, 24 h, relative to E64-treated cultures; listed as (±)-moxiquindole
# Protocol: Owing to the fact that the DSIIQs are constructed from the THIQ pharmacophore of naphthylisoquinolines, which appear to target proteases involved in hemoglobin degradation, we assessed the effect of this DSIIQ on hemoglobin metabolism. Briefly, tightly synchronized ring and trophozoite stage parasites were treated with test compounds for 24 h followed by parasite isolation and quantification of the intraparasitic hemoglobin contents.
# To investigate drug effects on hemoglobin degradation, early ring and mid-trophozoite stage parasites (1.5% hematocrit, 5% parasitemia) were co-cultured with the test compounds or experimental controls (0.1% DMSO, chloroquine, artemisinin NITD609 and E64) at a final concentration of 10 μM. The cultures were incubated at 37° C. and 5% CO2 for 24 h. Following incubation, inhibitors were removed by centrifugation at 1800 rpm for 5 min. The pellets were washed in an equal volume of 1×PBS and re-suspended in same volume of 0.1% saponin (in 1×PBS) for 3 min. Isolated parasites were pelleted at 2500 rpm for 5 min and washed twice in an equal volume of 1×PBS. The resulting parasite pellets were permeabilized by treatment in 20 μL of 1% Triton X-100 (in 1×PBS) for 5 min. Intraparasitic hemoglobin content was measured at 550 nm using a Nanodrop spectrophotometer, and folds increase in intra-parasite hemoglobin content was calculated relative to the E64-treated controls.
# [5] = tested on: Human Liposarcoma (SW872) cells; assay: MTT cell proliferation (cytotoxicity) assay, SW872 cells; format: cell-based
# Protocol: as §1
# [6] = tested on: asexual blood stages of P. falciparum; assay: Life cycle stage specific action by microscopy of Giemsa-stained thin smears; format: cell-based, Plasmodium falciparum; details: 10 μM, 24 h, listed as (±)-moxiquindole
# Protocol: The life cycle stage specific action of (±)-moxiquindole was determined by treatment of parasites at different time points followed by microscopic analysis of Giemsa-stained thin blood smears. Stage proportions were calculated for each asexual parasite stage in the drug treated wells relative to the same stage in the negative control wells.
# The inhibitory effects of active compounds or reference drugs on parasite development and schizont rupture were determined by quantitative light microscopy as previously described (Lee et al., 2015). Briefly, synchronized cultures (1.5% hematocrit and 3% parasitemia) at different time-points (early rings, mid trophozoites and schizonts) were treated with either test compound or controls at 10 μM final concentration for 24 h under regular culture conditions. Following treatment, Giemsa-stained thin smears were prepared and parasites were counted in 1,000 erythrocytes per treatment. Stage proportions in test wells relative to solvent control wells were calculated and used to assess the in vitro effects of each compound on trophozoites and schizont development as well as merozoite egress and invasion.
# [7] = tested on: Malaria parasites (ring-stage parasitized erythrocytes); assay: Drug-combination (drug-drug interaction) studies, SYBR-Green I; format: cell-based, Plasmodium falciparum
# Protocol: In view of the overlapping modes of action between the hybrids and some known antimalarial drugs in terms of targeted cellular processes, we investigated the interaction between these compounds at variable combination ratios. Malaria parasites were continuously cultured and synchronized as earlier described prior to the assay.
# Briefly, two-fold drug dilutions were prepared using a variable potency ratio drug combination approach, starting at 5EC50A: 0EC50B to 0EC50A: 5EC50B in serum-free medium, where A and B represent the different partner molecules.
# The test was run for 72 h and terminated when the untreated parasites were at the early trophozoite stage of the second cycle. Parasite viability was assessed by the SYBR-Green I fluorescence-based assay as earlier described. Dose-response curves and EC50 values of each combination and drug alone were obtained using GraphPad Prism v.5.0 and Microsoft Excel was used to calculate mean EC50 values and the standard error of the mean.
# [8] = tested on: CQ-sensitive 3D7 strain of P. falciparum; assay: SYBR green I-based parasite growth inhibition assay, 3D7 strain; format: cell-based, Plasmodium falciparum; details: for EC50: 72 h, read-out: EC50
smiles,measurement,setting,value
COc1cc2c(cc1OC)C1(NCC2)C(=O)Nc2ccc(Cl)cc21 (centres unmarked) [Compound 8b],neutral lipid bodies / vacuolar lipid uptake (Oil red O),[1],devoid of neutral lipid bodies
same,cross-resistance index,[2],0.935
same,EC50,[2]; Pf Dd2,1730 nM
same,EC50,"[2]; Pf Dd2, 0.078 μM to 10 μM",1730 nM
same,CC50,[3]; MTT,> 100000 nM
same,cell viability,"[3]; up to 100 μM compound concentration, 48 h",no significant decrease in cell viability
same,intraparasitic hemoglobin content / accumulation,[4],significantly higher; also recorded: accumulation of intra-parasitic hemoglobin
same,CC50,"[5]; SW872, MTT",> 100000 nM
same,cell viability,"[5]; SW872, up to 100 μM compound concentration, 48 h",no significant decrease in cell viability
same,"stage specific action on asexual blood stages (ring, trophozoite, schizont)","[6]; treated at early ring, mid-trophozoite or mid-schizont","multi-stage active; also recorded: exhibits inhibitory activities against ring-to-trophozoite development, trophozoite-to-schizont development and schizont rupture"
same,vacuolation in treated parasites,[6]; Giemsa-stained thin smears,abnormal vacuolation; also recorded: induced vacuolation in parasites
same,combination index (CI),[7]; in combination with artemisinin,1.440
same,combination index (CI),[7]; in combination with chloroquine,1.478
same,dose-response curve within the tested drug concentration range,"[8]; Pf 3D7, 0.078 μM to 10 μM",complete sigmoidal dose-response curve
same,EC50,"[8]; Pf 3D7, 0.078 μM to 10 μM, listed as (±)-moxiquindole",1850 nM
same,EC50,"[8]; Pf 3D7, 0.078 μM to 10 μM",< 2000 nM
same,parasite growth inhibition in primary assays,"[8]; primary screening at 10 μM, Pf 3D7, 72 h",~97%
